In PMC10283052, “Intranasal delivery of mitochondrial protein humanin rescues cell death and promotes mitochondrial function in Parkinson's disease” (Theranostics, 2023):

Columns and labels:
[1] = tested on: differentiated PC12 cells exposed to MPP^+; test: Intracellular humanin in MPP+-exposed differentiated PC12 cells, western blot; format: cell-based, rat; details: HN treatment, MPP+ exposure
Procedure: For neuronal differentiation of PC12 cells, the cells were grown in DMEM containing 1.5% horse serum, 1.5% FBS, 1% P/S, and 100 ng/mL nerve growth factor (NGF, Thermo Fisher Scientific) every 2 days. PC12 cells were differentiated for 7 days and used for subsequent experiments.
Mouse brain tissue samples and cells were homogenized in radioimmunoprecipitation assay (RIPA) buffer (Cell Signaling, Danvers, MA, USA) in the presence of a protease and phosphatase inhibitor cocktail (Thermo Fisher Scientific). The samples were sonicated on ice, and the supernatant was collected after centrifugation at 4°C at 10,000 g for 5 min. The protein samples were loaded and separated using Tris-glycine SDS-PAGE. To detect the HN peptide, the proteins were separated into three layers of tricine SDS-PAGE, as previously described. The separated proteins were transferred to nitrocellulose membranes (GenDEPOT, Barker, TX, USA). The membranes were blocked for 0.5 h, followed by incubation with appropriate primary antibodies overnight at 4°C. The primary antibodies used were as follows: anti-tyrosine hydroxylase (Cat # P40101, Pel-Freez Biologicals), anti-HN (Cat # RA19000, Neuromics), anti-β-actin (Cat # GTX109639, GeneTex, Irvine, CA, USA), and anti-GAPDH (Cat # AM4300, Thermo Fisher Scientific). […] The results were analyzed using the ImageJ densitometry system. […]

SH-SY5Y cells [2] = test: Mitochondrial mass and network morphology, MitoTracker Green; format: cell-based, human; details: HN 20 μM, 24 h
Procedure: For staining, the cells were seeded on PDL-coated glass slides and treated as indicated above. The samples were fixed using methanol and permeabilized using 0.1% Triton X-100 in PBS. After blocking with 5% bovine serum albumin (BSA), the cells were incubated with the appropriate primary antibody [anti-HN (1:500, Cat no # RA19000, Neuromics, Edina, MN, USA), anti-TH (1:500, Cat no # P40101, Pel-Freez Biologicals, Rogers, AR, USA), anti-lectin (1:200, Cat no # L32482, Thermo Fisher Scientific), anti-α-SMA (1:500, Cat no # ab5694, Abcam, Cambridge, MA, USA), and anti-GFAP (1:200, Cat no # sc-33673, Santa Cruz, Santa Cruz, USA)]. After incubation, the samples were washed and incubated with Alexa Fluor 594- or 488-conjugated antibodies (Thermo Fisher Scientific). The nuclei were stained using Hoechst 33342 (Sigma-Aldrich) and mounted using an anti-fade solution (Thermo Fisher Scientific). Fluorescent images were captured at the Neuroscience Translational Research Solution Center (Busan, South Korea) using an LSM 700 confocal microscope (Zeiss, Jena, Germany). The mitochondrial network morphology was assessed using the FIJI/ImageJ software as described previously.

rat organotypic slices = test: Ex vivo PD model, organotypic brain slices with 6-OHDA; format: cell-based; details: then 6-OHDA 100 μM, 2 h
Procedure: Postnatal 5-7-day-old rat pups were used to prepare organotypic slices, as previously described, with minor modifications. The brain of anesthetized pups was aseptically removed. The brain hemispheres were separated and cut sagittally into 350-μm slices using a MacIlwain tissue chopper (MacIlwain, Mickle Laboratory, Cambridge, UK). The slices were transferred to ice-cold Gray's Balanced Salt solution containing CaCl2 (1.5 mM), NaCl (136 mM), KCl (5 mM), KH2PO4 (0.2 mM), MgCl2 (1 mM), MgSO4 (0.2 mM), NaHCO3 (0.2 mM), Na2PO4 (0.08 mM), and glucose (5.5 mM). […]
Mouse brain tissue samples and cells were homogenized in radioimmunoprecipitation assay (RIPA) buffer (Cell Signaling, Danvers, MA, USA) in the presence of a protease and phosphatase inhibitor cocktail (Thermo Fisher Scientific). […] The results were analyzed using the ImageJ densitometry system. […]
The organotypic slice cultures were exposed to 6-OHDA at the tissue surface on DIV 8 to avoid apoptosis due to nutrients and to induce proper maturation. […] Intracellular ATP was quantified using the CellTiter-Glo Luminescent Viability Kit (Promega Corporation, Madison, WI, USA), according to the manufacturer's protocol. Luminescence was measured using a SpectraMax L Microplate Reader (Molecular Devices).

SH-SY5Y cells [3] = test: Mitochondrial membrane potential (TMRM) and mitochondrial ROS (MitoSOX); format: cell-based, human
Procedure: The SH-SY5Y cells were cultured in 96-well plates for 24 h before treatment. At the indicated time points, the cellular medium was removed, and the cells were washed with PBS. Mitochondrial ROS levels were measured using MitoSOX Red (Thermo Fisher Scientific) as described previously. The cells were counterstained using Hoechst 33342 (Sigma-Aldrich). Fluorescence intensity was quantified using a Synergy H1 multimode microplate reader (BioTek, Winooski, VT, USA) according to the manufacturer's protocol.
The cells were seeded in 96-well plates and treated as described above. To analyze the mitochondrial membrane potential, TMRM (Thermo Fisher Scientific) was used according to the manufacturer's instructions. The cells were counterstained using Hoechst 33342 (Sigma-Aldrich). Fluorescence intensity was assessed using a Synergy H1 multimode microplate reader or an LSR Fortessa cytometer at the Neuroscience Translational Research Solution Center.

In the case of “humanin (MAPRGFSCLLLLTSEIDLPVKRRA; Humanin; UniProt Q8IVG9 1-24, looked up) [HN, mitochondria-derived peptide encoded by the mitochondrial genome, synthesized by Fmoc-based SPPS at GL Biochem]”, the intracellular humanin [1] is reported as “upregulated intracellular humanin”, the mitochondrial branch length (SH-SY5Y cells [2]; versus DMSO) is reported as “longer rods and branches of mitochondria” and the mitochondrial volume (SH-SY5Y cells [2]; versus DMSO) is reported as “increase in mitochondrial volume”. For the same substance, the “number of branches per mitochondrial network” value (SH-SY5Y cells [2]; versus DMSO) was “increase”, the mitochondrial mass (SH-SY5Y cells [2]; MitoTracker Green) was “increased mitochondrial mass” and the “mitochondrial biogenesis markers PGC-1α and NRF1, western blot” value (rat organotypic slices; HN pre-treatment 1 μM, 24 h) was “stimulated mitochondrial biogenesis”. For the same substance, the “ATP levels (CellTiter-Glo luminescence)” value (rat organotypic slices; HN pre-treatment 24 h, 0.1 or 1 μM) was “effectively inhibited significant depletion of ATP levels”, the FCCP-induced mitochondrial depolarization (SH-SY5Y cells [3]; HN pre-treatment 24 h, 20 μM, FCCP 5 μM, 15 min, flow cytometry) was “effective in restoring” and the “mitochondrial membrane potential (TMRM)” value (SH-SY5Y cells [3]; HN pre-treatment before MPP+, flow cytometry, normalized to Hoechst 33342) was “effectively inhibited reduction in mitochondrial potential”. For the same substance, the “mitochondrial ROS production (MitoSOX)” value (SH-SY5Y cells [3]; HN pre-treatment before MPP+, normalized to Hoechst 33342) was “effectively inhibited”.
